Assay results from patent US8580854B2, “Methods of suppression of rage gene expression and rage triggered inflammatory genes by selected age-inhibitors” (City of Hope, priority 2005, dated 2013).
One block for each compound: values may come before it.

What was measured:
STZ-diabetic rats [1] = assay: Body weight, glycemic control and albuminuria in STZ-induced diabetic rats given LR-90 in drinking water for 32 weeks; assay type: in vivo, rat
Protocol: (§1) Animal studies were carried out in compliance with policies outlined in “The Guide for the care and Handling of Laboratory Animals” (NIH Publication No. 85-23), which have been approved by the City of Hope National Medical Center Animal Care Committee. Induction of diabetes by STZ and all other procedures were according to the previously published article on LR-90 (25), except that in the present study the diabetic rats under treatment were randomized in 5 groups of ten each: one diabetic control group (0 mg/L), one group receiving 2.5 mg/L, one group receiving 10 mg/L, a third group receiving 20 mg/L and a fourth group receiving 50 mg/L of LR-90 in drinking water (FIG. 1). Both plasma glucose and body weight were checked before administration of the drug, and no differences were detected among the two non-diabetic groups and five diabetic treatment groups. All animals were housed individually and were given free access to food (Purina rodent chow 5001, Ralston Purina, Richmond, Ind., USA) and water. Glycemic control and body weights were monitored periodically. In order to limit hyperglycemia and ensure that animals maintained body weight, diabetic animals received 3 IU of ultralente insulin (Humulin U, Eli Lilly, Indianapolis, Ind., USA) two to three times per week. The study was carried out over 32 weeks.
(§2) Blood (from the tail vein) and urine samples were collected from rats for glycemic control analysis and albuminuria measurements. Plasma glucose was measured using a glucose analyzer machine (YSI 2300 STAT, Yellowsprings, Ohio, USA). HbAlc concentration was measured by HPLC (BioRad DIAMAT, Hercules, Calif., USA). Total plasma triglycerides and cholesterol concentrations were quantified at the end of the study using the Vitros 250 Chemistry System (Johnson & Johnson, Rochester, N.Y., USA). Progression of renal dysfunction was assessed by measuring urinary albumin-to-creatinine ratio (ACR). Rats were housed in metabolic cages (Nalge, Rochester, N.Y., USA) for 24 hr and urine was collected in a collection beaker with several drops of toluene to inhibit microbial growth. Urinary albumin and creatinine concentrations were quantified immunologically using the Nephrat/Creatinine Companion kits (Exocell), and the ACR value was calculated for each rat.
(§3) At the end of study, the rats were weighed and anaesthetized with isofluorane and blood was drawn by heart puncture and transferred into heparinized and non-heparinized vacutainer tubes on ice. These blood samples were later centifuged for plasma and serum collection respectively, and stored at −70° C. until the time of analysis. Rats were killed by over-anesthetization and cardiac puncture and the kidneys were removed immediately, weighed, decapsulated and rinsed in PBS buffer. Sections of the kidneys were stored in 10% NBF for subsequent microscopic examinations and immunohistochemistry.
(§4) Statistical analyses were performed using Prism software (GraphPad, San Diego, Calif., USA). Unless otherwise indicated, data are presented as Means±Std. Group comparisons were analyzed using one-way ANOVA and subsequent post-hoc analysis by Tukey's test. A P value of less than 0.05 was considered statistically significant.

non-diabetic rats = assay: Non-diabetic control rats given LR-90 in drinking water for 32 weeks; assay type: in vivo, rat
Protocol: as §1, §2
At the end of study, the rats were weighed and anaesthetized with isofluorane and blood was drawn by heart puncture and transferred into heparinized and non-heparinized vacutainer tubes on ice. These blood samples were later centifuged for plasma and serum collection respectively, and stored at −70° C. until the time of analysis. […]
Statistical analyses were performed using Prism software (GraphPad, San Diego, Calif., USA). […] Group comparisons were analyzed using one-way ANOVA and subsequent post-hoc analysis by Tukey's test. […]

STZ-diabetic rats [2] = assay: Total plasma triglycerides and cholesterol in STZ-diabetic rats; assay type: in vivo, rat
Protocol: Animal studies were carried out in compliance with policies outlined in “The Guide for the care and Handling of Laboratory Animals” (NIH Publication No. 85-23), which have been approved by the City of Hope National Medical Center Animal Care Committee. Induction of diabetes by STZ and all other procedures were according to the previously published article on LR-90 (25), except that in the present study the diabetic rats under treatment were randomized in 5 groups of ten each: one diabetic control group (0 mg/L), […] (FIG. 1). Both plasma glucose and body weight were checked before administration of the drug, and no differences were detected among the two non-diabetic groups and five diabetic treatment groups. All animals were housed individually and were given free access to food (Purina rodent chow 5001, Ralston Purina, Richmond, Ind., USA) and water. Glycemic control and body weights were monitored periodically. In order to limit hyperglycemia and ensure that animals maintained body weight, diabetic animals received 3 IU of ultralente insulin (Humulin U, Eli Lilly, Indianapolis, Ind., USA) two to three times per week. The study was carried out over 32 weeks.
as §2

kidneys of diabetic rats = assay: Kidney histology (PAS and Trichrome staining) in STZ-diabetic rats; assay type: in vivo, rat
Protocol: as §3

CML-AGE = assay: Immunohistochemical staining of renal CML-AGE accumulation; assay type: in vivo, rat; conditions: diabetic rats, increasing concentrations; 25 and 50 mg/L best inhibitory effects
Description: (§5) Formalin-fixed […] embedded kidney sections ([…]) were mounted on slides and stained with 6D12 monoclonal anti-CML-AGE, polyclonal rabbit anti-RAGE and polyclonal goat anti-nitrotyrosine antibodies as described before (25). […] Similarly, RAGE protein expression in the glomeruli was visibly higher in diabetic rats compared with non-diabetic animals (FIG. 5).

RAGE [3] = assay: Immunohistochemical staining of renal RAGE protein expression; assay type: in vivo, rat; conditions: diabetic rats, increasing concentrations; 25 and 50 mg/L best inhibitory effects
Description: as §5

RAGE [4] = assay: S100b-induced RAGE mRNA expression on THP-1 monocytes (RT-PCR); assay type: cell-based, human; conditions: THP-1, pre-treated 1 hr with 25-200 ug/ml, S100b 4 hr; statistically significant at 100 and 200 ug/ml
Protocol: (§6) Human THP-1 monocytic cells were obtained from the American Type Culture Collection and cultured as described (27) in RPMI 1640 medium supplemented with 10% fetal calf serum (FCS), glutamine, HEPES, streptomycin/penicillin ([…]/100 units/ml), 50 uM-mercaptoethanol, and 5.5 mM D-glucose in a 5% CO2 incubator at 37° C. THP-1 cells (5×10^5 cells/ml) in 4 ml of medium were pre-treated with various concentrations of LR-90 (0, 25, 50, 100 and 200 ug/ml; prepared in 20 mM stock solution in DMSO) for 1 hr. Control cells received DMSO vehicle only. Thereafter, S100b ([…]) was added and cells re-incubated for 4 hr. The cell suspension was then centrifuged at 200 g, the supernatant was removed and the cell pellet was frozen at −70° C. for subsequent RNA extraction.
(§7) RNA Extraction and Relative RT-PCR-Total RNA was isolated by the RNA-STAT-60 reagent method (Teltest, Friendswood, Tex.), and […] was used for the RT reaction using a Gene Amp RNA PCR kit. […] PCR products were fractionated on 2.5% agarose gels, photographed using Alpha Imager 2000, and analyzed with Quantity 1 software (Bio-Rad Laboratories, Hercules, Calif.). Results were expressed as fold stimulation over control after normalizing with paired 18S RNA gene.
(§8) Data Analyses. […] Group comparisons were analyzed using one-way ANOVA and subsequent post-hoc analysis by Tukey's test. […]

MCP-1 [5] = assay: S100b-induced MCP-1 mRNA expression on THP-1 monocytes (RT-PCR); assay type: cell-based, human; conditions: THP-1, pre-treated 1 hr with 25-200 ug/ml, S100b 4 hr; statistically significant at 100 and 200 ug/ml
Protocol: as §6, §7, §8

COX-2 = assay: S100b-induced COX-2 mRNA expression on THP-1 monocytes (RT-PCR); assay type: cell-based, human; conditions: THP-1, pre-treated 1 hr with 25-200 ug/ml, S100b 4 hr; statistically significant at 100 and 200 ug/ml
Protocol: as §6, §7, §8

[6] = system: NADPH oxidase (gp91^phox subunit); assay: S100b-induced NADPH oxidase mRNA expression on THP-1 monocytes (RT-PCR); assay type: cell-based, human; conditions: THP-1, pre-treated 1 hr with 25-200 ug/ml, S100b 4 hr; statistically significant at 100 and 200 ug/ml
Protocol: as §6, §7, §8

MCP-1 [7] = assay: Secreted MCP-1 levels of THP-1 cells by ELISA; assay type: cell-based, human; conditions: THP-1 supernatants
Protocol: Measurement of MCP-1 levels by ELISA. Supernatants of THP-1 cells (5×10^5 cells/ml) cultured in RPMI 1640 medium containing 2% FBS for 18 hrs under control or LR-90 treated conditions were used to assay secreted MCP-1 levels using the Quantikine ELISA kit. Medium alone without cells was incubated under the same conditions and used as blank control for the ELISA.
as §4, with “Data Analyses. Statistical” for “Statistical”

THP-1 cells = assay: Cell viability test on THP-1 cells (cell counter, Trypan Blue); assay type: cell-based, human
Protocol: Cell Viability Test—THP-1 cells were seeded onto 6-well plates at a concentration of ˜5×10^5/ml in RPMI medium containing 10% FCS as above, and then incubated with various concentrations of LR-90 or control medium alone for 24 hr at 37° C., 5% CO2. After incubation, overall cell counts were measured using a cell counter (Coulter Z1 Cell and Particle Counter, Beckman Coulter Inc., Fullerton, Calif.), and the number of viable cells determined by hemocytometer counts of Trypan Blue—impermeable cells.

STZ-diabetic rats [8] = assay: Body weight, glycemic control and albuminuria in STZ-induced diabetic rats given LR-90 in drinking water for 32 weeks; assay type: in vivo, rat; remark: listed apart in the source
hemoglobin = hemoglobin (Homo sapiens, UniProt P68871+P69905); conditions: synergistic with 2,3-bisphosphoglycerate; cited from earlier work
[9] = system: rats fed a diet rich in cholesterol; conditions: cited from earlier work
[10] = 2.5 mg per liter drinking water daily
[11] = 10 mg per liter drinking water daily
[12] = 50 mg per liter drinking water daily
[13] = non-diabetic rats, 50 mg per liter drinking water daily
[14] = streptozotocin-induced diabetic rats, summary statement
[15] = marked difference at 25 and 50 mg/L
[16] = 25 mg per liter drinking water daily

Sequence of hemoglobin (P69905 2-142 limits assumed): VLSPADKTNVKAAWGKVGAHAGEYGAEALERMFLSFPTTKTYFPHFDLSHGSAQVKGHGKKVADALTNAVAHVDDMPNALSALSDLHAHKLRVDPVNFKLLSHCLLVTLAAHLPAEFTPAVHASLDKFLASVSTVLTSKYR
Sequence of hemoglobin (P68871 2-147 limits assumed): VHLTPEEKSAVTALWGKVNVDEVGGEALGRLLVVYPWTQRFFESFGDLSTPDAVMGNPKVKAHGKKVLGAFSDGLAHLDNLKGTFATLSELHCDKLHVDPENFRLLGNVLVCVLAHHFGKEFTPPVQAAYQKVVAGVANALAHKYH

S100b-induced NADPH oxidase mRNA expression [6]: profoundly suppressed
Compound: CC(C)(Oc1ccc(NC(=O)Nc2ccc(Cc3ccc(NC(=O)Nc4ccc(OC(C)(C)C(=O)O)cc4)c(Cl)c3)cc2Cl)cc1)C(=O)O [LR-90]
ACR (urinary albumin-to-creatinine ratio) (STZ-diabetic rats [1]; [10]): 2.35 ± 1.96 mg/mg
HbA1c (STZ-diabetic rats [1]; [10]): 2.6 ± 0.6 %
Plasma Glucose (STZ-diabetic rats [1]; [10]): 29.9 ± 5.9 mmol/L
ACR (urinary albumin-to-creatinine ratio) (STZ-diabetic rats [1]; [11]): 2.60 ± 1.74 mg/mg
HbA1c (STZ-diabetic rats [1]; [11]): 3.0 ± 0.4 %
Plasma Glucose (STZ-diabetic rats [1]; [11]): 30.8 ± 2.9 mmol/L
HbA1c (STZ-diabetic rats [1]; [12]): 3.0 ± 0.2 %
Plasma Glucose (STZ-diabetic rats [1]; [12]): 31.6 ± 3.9 mmol/L
ACR (urinary albumin-to-creatinine ratio) (STZ-diabetic rats [1]; 50 mg per liter drinking water daily, p < 0.05 vs. diabetic rats): 1.39 ± 1.17 mg/mg
effect on HbAlc concentration (STZ-diabetic rats [1]; various doses): no affect
effect on plasma glucose concentration (STZ-diabetic rats [1]; various doses): no affect
effect on lipid metabolism (non-diabetic rats; non-diabetic animals): no effect
ACR (urinary albumin-to-creatinine ratio) (non-diabetic rats; [13]): 0.42 ± 0.32 mg/mg
HbA1c (non-diabetic rats; [13]): 1.2 ± 0.1%
Plasma Glucose (non-diabetic rats; [13]): 8.9 ± 1.0 mmol/L
reduction in triglyceride concentration (STZ-diabetic rats [2]; diabetic rats, 25 mg/L): ≥ 60%
reduction in triglyceride concentration (STZ-diabetic rats [2]; diabetic rats, 50 mg/L): ≥ 60%
cholesterol concentration relative to non-diabetic animals (STZ-diabetic rats [2]; diabetic rats, all concentrations tested with the exception of 10 mg/L): nearly normalized
reduction in triglyceride concentration (STZ-diabetic rats [2]; diabetic rats, lowest concentration (25 mg/L) tested): ~50%
reduction of increased concentration of cholesterol (STZ-diabetic rats [2]; [14]): more than 50%
reduction of increased concentration of triglycerides (STZ-diabetic rats [2]; [14]): more than 50%
cell infiltration in the renal interstitium (kidneys of diabetic rats): prevented cell infiltration
mesangial expansion and basement membrane thickening of the kidneys (kidneys of diabetic rats): prevented mesangial expansion and basement membrane thickening
collagen deposition and tubular degeneration in the kidney glomeruli (Trichrome staining) (kidneys of diabetic rats; [15]): prevented collagen deposition and tubular degeneration
levels of PAS-positive materials in kidney glomeruli (kidneys of diabetic rats; [15]): reduced the levels of PAS-positive materials
CML-AGE accumulation in kidney glomeruli and cortical tubules (CML-AGE): visibly reduced
RAGE protein expression in the glomeruli (RAGE [3]): visibly reduced
S100b-induced RAGE mRNA expression (RAGE [4]): profoundly suppressed
S100b-induced MCP-1 mRNA expression (MCP-1 [5]): profoundly suppressed
S100b-induced COX-2 mRNA expression (COX-2): profoundly suppressed
MCP-1 protein expression (secreted, ELISA) (MCP-1 [7]): inhibited MCP-1 protein expression in a concentration-dependent manner
cell viability (Trypan blue staining) (THP-1 cells): viable
cell counts after incubation (THP-1 cells; THP-1, same concentrations as in S100b experiments, 24 hr): normal and statistically similar to the untreated cells
HbA1c (STZ-diabetic rats [8]; [16]): 2.9 ± 0.4 %
Plasma Glucose (STZ-diabetic rats [8]; [16]): 26.7 ± 2.4 mmol/L
ACR (urinary albumin-to-creatinine ratio) (STZ-diabetic rats [8]; 25 mg per liter drinking water daily, p < 0.05 vs. diabetic rats): 1.75 ± 1.43 mg/mg
rise in ACR (STZ-diabetic rats [8]; 25 and 50 mg/L doses statistically significant vs. untreated diabetic animals): inhibited the rise in ACR in almost dose-dependent manner

Compound: N-4-(nitrophthalimido)phenoxyisobutyric acid [LR-16]
effect on oxygen affinity of hemoglobin molecules (hemoglobin): allosteric effector
low-density lipoproteins (LDL) [9]: lower
serum cholesterol [9]: lower
